The values below come from EP0773292A1, “Immortalised embryonic hippocampal cells and their use” (BAYER AG, priority 1995, dated 1997).

Common to all, as to assay type: cell-based, murine
Experiment [1] has as its system HNMMCV14.1.A. Kind of experiment: Electrophysiology: whole-cell patch-clamp, ligand-activated currents. Particulars: 14.1.A; membrane potential clamped to -70mV. As for the experimental part:
(§1) Electrophysiological setup: Membrane currents were measured with the patch-clamp technique in the whole-cell recording configuration (Hamill et al. 1981, Pfluegers Arch. 391:85-100). Current signals were amplified with conventional electronics (EPC-9 amplifier, HEKA Elektronik GmbH, Lambrecht, Germany), filtered at 10kHz, and sampled at 5 kHz by an interface connected to an IBM AT-compatible computer system, which also served as a stimulus generator.
(§2) Solutions and electrodes: The standard bathing solution contained (in mM): Nacl 150, KCL 5, MgCl2 1.8, HEPES 5, and glucose 10. In some experiments an equimolar amount of NaCl was replaced by 5mM BaCl2. Recording pipettes had resistances about 5MΩ (Hilgenberg, Malsfeld, Germany). The pipettes contained (in mM): KCL 140, CaCl2 0.5, EGTA 5, MgCl2 2, and HEPES 10. The pH was adjusted to 7.4. In some experiments the pipette solution was designed to minimize the contribution of voltage-activated currents. In this case, investigating the ligand-activated currents, the pipette solution contained (in mM): CsCl 140, EGTA 10, and HEPES 10.
(§3) Ligands were dissolved in the extracellular saline solution and applied via an U-tube application system. To record ligand-induced currents, the membrane potential was clamped to -70mV. For measurements of voltage-activated currents, cells were held at -70mV and every second the membrane was stepped through a 50 msec. de- or hyperpolarising test pulse to a potential between -170 and +20 mV.

A further experiment deals with HC e/n XVB cells. Described as above. To be noted: for ligand-activated currents: membrane potential clamped to -70mV; for ligand induced inward currents: differentiated HC e/n XVB cells, AMPA 100µM, NMDA, kainate, glutamate 1mM. As for the experimental part:
as §1, §2, §3

A further experiment concerns HNMMCV11.2.0. Nature of the experiment: Ca2+-imaging (Fura-2), rise in intracellular calcium. To be noted: HNMMCV11.2.0; glutamate 10µM to 10 mM, AMPA, kainic acid, serotonine, dopamine, carbachol up to 1mM, NMDA up to 500µM. The protocol: (§4) Fluorescent Probe: Dynamic changes of intracellular calcium concentration were measured using the Fura-2 fluorescent probe (Roe et al. 1990, Cell Calcium 11:63-73). This fluorescent dye was chosen because of its selectivity, high quantum yield and extinction co-efficient. Fura-2 permeates the living cell as a acetoxymethylester and becomes trapped within the cell after hydrolysis by intracellular esterases. The calcium-sensitive free acid of Fura-2 is able to bind to calcium ions inside the cell. Fura-2 has an excitation maximum at 380 nm and the Fura2/calcium complex peaks at 340 nm. A change in intracellular calcium concentration was calculated by recording fluorescent video images at wavelengths of 340nm and 380nm excitation and 510nm emission and by dividing the grey values of the digitized video images of 380nm from 340nm.
(§5) Loading cells with Fura-2: A stock solution with 2mM Fura-2-acetoxymethylester in dimethylsulfoxide (DMSO) was diluted to 5-10 µM with serum free Minimal Essential Medium (MEM, Gibco) containing 1.5% bovine serum albumin and 5 mM calcium chloride. The cells were incubated in a Falcon 96 well plate for 45-60 minutes at 37°C. Subsequently the cells were washed twice in N-(2-Hydroxyethyl)piperazine-N'-(2-ethanesulfonic acid) (HEPES, 5mM) buffered Tyrode solution (HEPES buffered salt solution containing 130 mM NaCl, 5 mM KCl, 2 mM CaCl2, 1 mM MgCl2, 5mM NaHCO3, 11 mM Glucose).
(§6) Imaging procedure: 100 µl of Tyrode buffer was added to the plate wells and the cells were sequencially exposed to light at 340 nm and 380 nm under a fluorescent microscope (Nikon Diaphot). The exposition time was 100 ms. A series of video images at 3 second intervals was acquired and stored as digitised pictures in the image boards of an image analysis computer (Leica, Quantimet 570). After the acquisition of 8 images the test substances were applied. The grey levels of the cells, which correspond to the fluorescence intensity, were measured in the recorded video images. The ratio was determined by dividing the measured grey levels of the "380 nm images" by the grey levels of the "340 nm images" either from averaged images or from individual cells. For averaged results, the grey levels were measured over the whole images.
(§7) The cells were loaded with Fura 2/AM between day 3 and 7 in culture. A number of agonists were tested for their ability to activate specific receptors on the cell surface which leads to a rise in intracellular calcium. The rise in calcium concentration in the cytoplasm can occur after activation of specific calcium channels in the cell membrane, after activation of neurotransmitter receptors directly coupled to ion channels that are permeable to calcium ions (i.e. NMDA or AMPA type glutamate receptors), or by activation of receptors, which propagate the signal through the activation of specific G-proteins, which regulate the activity of different enzymes in the interior of the cell (Connor, Cell Calcium 14 (1993), 185-200; Crouch and Hendry, Medical Res. Rev. 13 (1993), 105-123). The activation of phospholipase C generates the second messengers diacylglycerol and inositoltriphosphate from phospholipids in the cell membrane. The binding of inositoltriphosphate to receptors localised on internal vesicles which store calcium ions leads to a transient rise in the concentration of calcium ions in the cytoplasm (Berridge, M.J. 1993, Nature 361: 315-325).
On the technique in general: Calcium flux is commonly read through the fluorescence of an indicator in the cells.

For a further experiment, the system named is HC e/n XV.B cells. Described as above. The protocol: as §4, §5, §6, §7
The subject of another experiment is HNMMCV13.1.F. Described as above. To be noted: for transient rise in intracellular calcium concentration: HNMMCV13.1.F, glutamate 10µM to 10 mM, AMPA, kainic acid, serotonine, dopamine, carbachol up to 1mM, NMDA up to 500µM. The protocol:
as §4, §5, §6, §7

Another experiment deals with HNMMCV13.1.E. The description is as above. Particulars: HNMMCV13.1.E; glutamate 10µM to 10 mM, AMPA, kainic acid, serotonine, dopamine, carbachol up to 1mM, NMDA up to 500µM. As for the experimental part:
as §4, §5, §6, §7

Experiment [2] concerns metabotropic glutamate receptor(s) (mGluR) expressed by HNMMCV14.1A cells. Nature of the experiment: Second messenger: phosphoinositide hydrolysis, accumulation of 3H-inositol phosphates. As for the experimental part:
Phosphoinositide hydrolysis was determined by measuring the accumulation of ^3H-inositol phosphates. The cells were plated in 48-well plates (Costar) at a density of 10000 cells per well and incubated for 4-5 days at 37°C, 7% CO2. Then the cells were labeled by incubation with 4 µCi of myo-2-^3H-inositol per ml medium (specific activity: […]: Amersham). After 24 h LiCl (10 mM final concentration) was added to the cells for 1 h. Agonists were then added at the concentrations indicated. The incubation was stopped after 1 h by replacing the medium with 200 µl ice-cold methanol. 400 µl of destilled water was added and the sample was directly applied to AG-1X8 ion exchange columns (AG-1X8 resin: BioRad). Free inositol and glycerophosphoryl-inositol were washed away with 16 ml destilled water followed by 10 ml 5 mM disodium-tetraborate, 60 mM sodium formate. Total ^3H-inositol phosphates (IP1, IP2, IP3) were eluted with 7 ml of 100 mM formic acid, 1 M ammonium formate. Radioactivity of the eluted ^3H-inositol phosphates was determined by liquid scintillation counting after addition of 13 ml liquid scintillation cocktail (Ultima Gold: Canberra Packard). Measurements were performed in triplicates for each experimental point. Untreated controls were set as 100% and the other values calculated in relation to this.
The columns were prepared as follows: 1 ml pipet tips were filled with one glass bead (Roth) per tip before adding 500 µl AG-1X8 resin. The resin was compressed with air and 270 µl seasand was applied. Until use they were stored at 4°C.

The subject of experiment [3] is HNMMCV14.1.A. Kind of experiment: Ca2+-imaging (Fura-2), rise in intracellular calcium. To be noted: HNMMCV14.1.A; glutamate 10µM to 10 mM, AMPA, kainic acid, serotonine, dopamine, carbachol up to 1mM, NMDA up to 500µM. The protocol:
as §4, §5, §6, §7

The mark [4] stands for this setting: HC e/n XV.B cells, state of differentiation not given, up to 1mM.
[5] abbreviates: differentiated HC e/n XV.B cells.
The mark [6] stands for this setting: HNMMCV14.1A cells, result in words.

Read-outs that look alike come from different tables or passages of the source.

Regarding `NCCCC(=O)O` [GABA], the ligand-activated currents result is reported as “++ (++: 30-70% positive cells)” with HNMMCV14.1.A [1]; “+ (+: 10-30% positive cells)” in the experiment on HC e/n XVB cells (XV. B (with EGF, undifferentiated)); “+++ (+++: 70-100% positive cells)” with HC e/n XVB cells (XV. B/ - EGF (differentiated)). Also, the “reversal potential of the ligand-activated current” value in the experiment with HC e/n XVB cells (HC e/n XVB cells, membrane stepped from -100 to +40) was “~+10 mV”. For the same molecule, the “ligand induced inward currents” value in the experiment with HC e/n XVB cells is given as “prominent resonses”.
For the molecule `C[N+](C)(C)CCOC(N)=O` [Carbachol], the “transient rise in intracellular calcium concentration” value is on record as “not in any other cell line tested” in the experiment on HNMMCV11.2.0, “reproducible signal” in the experiment with HC e/n XV.B cells (setting [4]), “not in any other cell line tested” in the experiment with HNMMCV13.1.F and “not in any other cell line tested” with HNMMCV13.1.E.
Take `NC(C(=O)O)c1cc(O)no1` (stereo not shown) [ibotenate]: in experiment [2], the “effect on inositolphosphate accumulation” value is “concentration dependent increase” and the “maximum responses (inositolphosphate accumulation) compared with glutamate” value (“maximum responses … compared with glutamate” for short) is recorded as “slightly weaker”.
As for `Cc1onc(O)c1CC(N)C(=O)O` (stereo not shown) [AMPA, ∝-amino-3-hydroxy-5-methyl-4-isoxazol-propionic acid], the “transient rise in intracellular calcium concentration” value in the experiment on HNMMCV11.2.0 was “did not result in a transient rise in intracellular calcium concentrations”; in the experiment on HC e/n XV.B cells (undifferentiated HC e/n XV.B cells, AMPA, kainate up to 1mM, NMDA up to 500µM) it was “did not result in a transient rise in intracellular calcium concentrations”; in the experiment with HNMMCV13.1.F it was “did not result in a transient rise in intracellular calcium concentrations”; in the experiment with HNMMCV13.1.E, “did not result in a transient rise in intracellular calcium concentrations”; in the experiment with HNMMCV14.1.A [3], “did not result in a transient rise in intracellular calcium concentrations”. Further, in the experiment on HC e/n XVB cells (XV. B/ - EGF (differentiated)), the ligand-activated currents result is recorded as “+ (+: 10-30% positive cells)”. For the same molecule, the “ligand induced inward currents” value in the experiment with HC e/n XVB cells is reported as “evoked responses with different peak amplitudes”.
In the case of `NCCc1ccc(O)c(O)c1` [Dopamine, dopamine], the “transient rise in intracellular calcium concentration” value in the experiment on HNMMCV11.2.0, in the experiment on HC e/n XV.B cells (setting [4]), with HNMMCV13.1.F, in the experiment with HNMMCV13.1.E and in the experiment on HNMMCV14.1.A [3] was “did not lead to a specific signal” each time.
In the case of `N[C@H](C(=O)O)[C@H]1C[C@@H]1C(=O)O` [L-CCG 1, L-carboxycyclopropylglycin], the “transient rise in intracellular calcium concentration” value with HNMMCV11.2.0 is on record as “strong”; in the experiment on HC e/n XV.B cells (setting [5]), “weak signals”; in the experiment on HNMMCV13.1.F it was “strong”; in the experiment with HNMMCV13.1.E it was “strong”; in the experiment on HNMMCV14.1.A [3], “strong”.
For the molecule `N[C@@]1(C(=O)O)CC[C@@H](C(=O)O)C1` [t-ACPD, 1S3R-aminocyclopentane-1,3-dicarboxylate], the “transient rise in intracellular calcium concentration” value is listed as “strong” in the experiment on HNMMCV11.2.0; “weak signals” in the experiment with HC e/n XV.B cells (setting [5]); “strong” in the experiment on HNMMCV13.1.F; “strong” in the experiment with HNMMCV13.1.E; “strong” with HNMMCV14.1.A [3]. Besides, in experiment [2] (HNMMCV14.1A cells), the “maximum responses … compared with glutamate” value is “slightly weaker”. Further, the “effect on inositolphosphate accumulation” value in experiment [2] (setting [6]) is listed as “concentration dependent increase”.
Consider `NCCc1c[nH]c2ccc(O)cc12` [Serotonine], for which the “transient rise in intracellular calcium concentration” value in the experiment with HNMMCV11.2.0, with HC e/n XV.B cells (setting [4]), in the experiment on HNMMCV13.1.F, in the experiment on HNMMCV13.1.E and with HNMMCV14.1.A [3] was “did not lead to a specific signal” each time.
Take `N[C@@H](Cn1oc(=O)[nH]c1=O)C(=O)O` [Quisqualate, quisqualate]: the “maximum responses … compared with glutamate” value in experiment [2] (HNMMCV14.1A cells) was “slightly weaker”. Moreover, in experiment [2] (setting [6]), the “effect on inositolphosphate accumulation” value was “concentration dependent increase”.
Consider `N#Cc1cc2[nH]c(=O)c(=O)[nH]c2cc1[N+](=O)[O-]` [CNQX, 6-nitro-7-cyanochinoxalin-2,3-dione], for which, in the experiment on HNMMCV13.1.F (glutamate 100µM, CNQX 100µM, cell clone taken from Table 5 (13.1.F)), the “antagonism of the calcium signals recorded after application of glutamate” value is given as “not antagonised”.
Take `CC(=O)OCC[N+](C)(C)C` [Acetylcholine, acetylcholine]: the ligand-activated currents result is “+ (+: 10-30% positive cells)” with HNMMCV14.1.A [1] and “-” with HC e/n XVB cells (XV. B/ - EGF (differentiated)).
For `CN[C@H](CC(=O)O)C(=O)O` [NMDA, N-methyl-D-aspartate], in the experiment on HC e/n XVB cells (XV. B/ - EGF (differentiated)), the ligand-activated currents result is reported as “++ (++: 30-70% positive cells)”.
